In the experiment the target is Protein arginine deiminase 4 (PAD4) (Homo sapiens, UniProt Q9UM07). Kind of experiment: PAD4 ammonia release assay. The experiment is classed as biochemical. Here is the method: 1) Compound preparation: The compounds were diluted to 80× final concentrations. 2) The compounds were transferred to a 384-well assay plate by Tecan. DMSO: 1.25%. 3) Preparation of 1×Assay buffer: 100 mM HEPES, PH=8.0, 2 mM CaCl2, 50 mM NaCl, 0.1 mM TCEP, 0.6 mg/ml BSA. 4) 2× enzyme working solution (PAD4:20 nM) was prepared with assay buffer, and 10 μL of the obtained working solution were added to the 384-well assay plates. 5) The plate was centrifuged at 1000 rpm for 1 min. 6) After the centrifuge, the plate was incubated at RT for 15 min. 7) 2×BAEE substrate mix (600 μM) was prepared with assay buffer and 10 μL of the obtained substrate mix were added to each well. 8) The plate was centrifuged at 1000 rpm for 1 min and then incubated at RT for 60 min. 9) 1.5× detection mix (DTT:4 mM, OPA:3 mM, EDTA: 30 mM) was prepared, and 10 μL of the mix were added to the plate. 10) The plate was centrifuged at 1000 rpm for 1 min and then incubated at RT for 120 min. 11) The 384-well plates were placed into the Envision (PerkinElmer) and the assay data were collected.
The percent (%) inhibition at each concentration of compound was calculated based on and relative to the signal in the HPE (50 μM ref. compound) and ZPE (1.25% DMSO) wells included within each assay plate. The HPE worked as 100% inhibition, and the ZPE worked as 0% inhibition. The concentrations and % inhibition values for tested compounds were plotted and the concentration of compound required for 50% inhibition (IC50) was determined with a Four-parameter logistic dose response equation. The endpoint value (IC50) for the reference compound was evaluated in each experiment as a quality control measure. If the endpoint value is within 3-fold of the expected value, then the experiment quality is deemed as acceptable. The results are provided in Table 1 below. ≤0.1 μM=“++++”; >0.1 and ≤0.5 μM=“+++”; >0.5 and ≤5.0 μM=“++”; >5.0 μM=“+”. “−”=not available.

Where [1] appears, read: PAD4 ammonia release assay, BAEE substrate, 60 min at RT, read-out: Average IC50 Abs.
[2] abbreviates: PAD4 activity comparison, read-out: PAD4 Ammonia assay IC50.

Structures are written as SMILES. pIC50: −log10 of the molar value. Like-named read-outs stand apart in the source and are kept apart here.

In US20250136607A1 (REGOR PHARMACEUTICALS, INC., priority 2021, published 2025) one finds IC50 data, which are given here for 21 compounds.

Sequence of Protein arginine deiminase 4 (PAD4) (Q9UM07 whole entry): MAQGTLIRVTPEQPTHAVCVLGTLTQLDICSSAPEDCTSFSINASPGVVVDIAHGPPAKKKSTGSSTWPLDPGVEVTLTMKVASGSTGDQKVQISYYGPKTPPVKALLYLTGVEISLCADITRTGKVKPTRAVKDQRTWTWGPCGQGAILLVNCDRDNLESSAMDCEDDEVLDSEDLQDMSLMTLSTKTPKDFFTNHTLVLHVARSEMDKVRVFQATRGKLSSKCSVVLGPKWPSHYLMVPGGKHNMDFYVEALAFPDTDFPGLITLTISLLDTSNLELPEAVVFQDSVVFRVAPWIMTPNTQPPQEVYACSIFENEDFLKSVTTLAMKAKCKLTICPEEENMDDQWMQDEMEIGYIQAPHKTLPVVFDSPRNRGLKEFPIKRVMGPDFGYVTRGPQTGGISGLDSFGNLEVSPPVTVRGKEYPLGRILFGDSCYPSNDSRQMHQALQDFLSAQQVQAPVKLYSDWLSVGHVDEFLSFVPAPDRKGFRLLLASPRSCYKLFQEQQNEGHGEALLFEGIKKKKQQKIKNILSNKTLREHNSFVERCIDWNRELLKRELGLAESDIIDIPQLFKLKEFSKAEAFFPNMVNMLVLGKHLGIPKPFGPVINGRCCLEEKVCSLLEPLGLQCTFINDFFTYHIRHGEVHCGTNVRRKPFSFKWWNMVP

With `COc1cc(C(=O)N2CCC3(CC3N)C2)cc2nc(-c3cc4cccc5c4n3CCN5CCCO)n(CC3CC3)c12` (centres unmarked) [Example 52, (1-amino-5-azaspiro[2.4]heptan-5-yl)(1-(cyclopropylmethyl)-2-(1-(3-hydroxypropyl)-2,3-dihydro-1H-pyrrolo[1,2,3-de]quinoxalin-5-yl)-7-methoxy-1H-benzo[d]imidazol-5-yl)methanone], the negative logarithm of the IC50 (pIC50) under setting [1] is under 5.30.

For the compound `CCC1CN(CCCOC)c2cccc3cc(-c4nc5cc(C(=O)N6C[C@H](N)C[C@@H](F)C6)cc(OC)c5n4C)n1c23` (stereo partly drawn) [Example 84, ((3R,5R)-3-amino-5-fluoropiperidin-1-yl)(2-(3-ethyl-1-(3-methoxypropyl)-2,3-dihydro-1H-pyrrolo[1,2,3-de]quinoxalin-5-yl)-7-methoxy-1-methyl-1H-benzo[d]imidazol-5-yl)methanone], the negative logarithm of the IC50 (pIC50) under setting [1] was 6.30 to 7.00.

With `COc1cc(C(=O)N2CCC[C@@](C)(N)C2)cc2nc(-c3cc4cccc5c4n3CCN5CCCO)n(C)c12` [Example 16, (R)-(3-amino-3-methylpiperidin-1-yl)(2-(1-(3-hydroxypropyl)-2,3-dihydro-1H-pyrrolo[1,2,3-de]quinoxalin-5-yl)-7-methoxy-1-methyl-1H-benzo[d]imidazol-5-yl)methanone], the pIC50 under setting [1] was under 5.30. Same read-out and setting: next, `CC[C@@H]1[C@H](C)Nc2cccc3cc(-c4nc5cc(C(=O)N6C[C@H]7CC[C@@H]6[C@@H]7N)cc(F)c5n4C)n1c23` (single isomer, unassigned) [Example 133]: under 5.30; `COCCCN1CCn2c(-c3nc4cc(C(=O)N5CCC[C@@H](N)C5)cc(OC)c4n3C)cc3cccc1c32` [Example 21, (R)-(3-aminopiperidin-1-yl)(7-methoxy-2-(1-(3-methoxypropyl)-2,3-dihydro-1H-pyrrolo[1,2,3-de]quinoxalin-5-yl)-1-methyl-1H-benzo[d]imidazol-5-yl)methanone]: 5.30 to 6.30; `Cn1c(-c2cc3cccc4c3n2[C@H](C2CC2)CN4CCCO)nc2cc(C(=O)N3C[C@H]4CC[C@@H]3[C@@H]4N)cc(F)c21` (single isomer, unassigned) [Example 113]: 5.30 to 6.30.

Turning to `Cn1c(-c2cc3ccc4c(c3n2CC2CC2)CCN4)nc2cc(C(=O)N3C[C@H]4CC[C@@H]3[C@@H]4N)cc(F)c21` [Example 143, ((1R,4R,7R)-7-amino-2-azabicyclo[2.2.1]heptan-2-yl)(2-(1-(cyclopropylmethyl)-1,6,7,8-tetrahydropyrrolo[2,3-e]indol-2-yl)-7-fluoro-1-methyl-1H-benzo[d]imidazol-5-yl)methanone], the pIC50 under setting [1] is 6.30 to 7.00. Still for that read-out and setting: then `COc1cc(C(=O)N2C[C@H]3CC[C@@H]2[C@@H]3N)cc2nc(-c3cc4cccc5c4n3CCN5CCCO)n(Cc3cnn(C)c3)c12` [Example 45, ((1R,4R,7R)-7-amino-2-azabicyclo[2.2.1]heptan-2-yl)(2-(1-(3-hydroxypropyl)-2,3-dihydro-1H-pyrrolo[1,2,3-de]quinoxalin-5-yl)-7-methoxy-1-((1-methyl-1H-pyrazol-4-yl)methyl)-1H-benzo[d]imidazol-5-yl)methanone], with under 5.30.

Regarding `Cn1c(-c2cc3ccc4c(c3n2CC2CC2)NC(=O)C4(C)C)nc2cc(C(=O)N3C[C@H]4CC[C@@H]3[C@@H]4N)cc(F)c21` [Example 141, 7-(5-((1R,4R,7R)-7-amino-2-azabicyclo[2.2.1]heptane-2-carbonyl)-7-fluoro-1-methyl-1H-benzo[d]imidazol-2-yl)-8-(cyclopropylmethyl)-3,3-dimethyl-3,8-dihydropyrrolo[3,2-g]indol-2(1H)-one], under setting [1], the negative logarithm of the IC50 (pIC50) was 5.30 to 6.30. The same measure, in the same setting: next, `Cn1c(-c2cc3cccc4c3n2[C@H](C2CC2)CN4)nc2cc(C(=O)N3C[C@H]4CC[C@@H]3[C@@H]4N)cc(F)c21` (single isomer, unassigned) [Example 109]: 5.30 to 6.30. On the same count and under the same terms, then `Cn1c(-c2cc3c(C#N)ccc4c3n2[C@H](C2CC2)CN4)nc2cc(C(=O)N3C[C@H]4CC[C@@H]3[C@@H]4N)cc(F)c21` [Example 119, (R)-5-(5-((1R,4R,7R)-7-amino-2-azabicyclo[2.2.1]heptane-2-carbonyl)-7-fluoro-1-methyl-1H-benzo[d]imidazol-2-yl)-3-cyclopropyl-2,3-dihydro-1H-pyrrolo[1,2,3-de]quinoxaline-7-carbonitrile], with under 5.30; and `COc1cc(C(=O)N2CC[C@@H](F)[C@@H](N)C2)cc2nc(-c3cc4cccc5c4n3CCN5CCCO)n(C)c12` [Example 20, ((3S,4R)-3-amino-4-fluoropiperidin-1-yl)(2-(1-(3-hydroxypropyl)-2,3-dihydro-1H-pyrrolo[1,2,3-de]quinoxalin-5-yl)-7-methoxy-1-methyl-1H-benzo[d]imidazol-5-yl)methanone], with 5.30 to 6.30. In the case of `COc1cc(C(=O)N2C[C@H](N)C[C@@H](F)C2)cc2nc(-c3cc4cccc5c4n3CCN5CCCNC(=O)NC3CC3)n(C)c12` [Example 4, 1-(3-(5-(5-((3R,5R)-3-amino-5-fluoropiperidine-1-carbonyl)-7-methoxy-1-methyl-1H-benzo[d]imidazol-2-yl)-2,3-dihydro-1H-pyrrolo[1,2,3-de]quinoxalin-1-yl)propyl)-3-cyclopropylurea], the negative logarithm of the IC50 (pIC50) under setting [1] is 5.30 to 6.30. Consider `CC1CNc2cccc3cc(-c4nc5cc(C(=O)N6CCC[C@@H](N)C6)ccc5n4C)n1c23` (stereo partly drawn) [Example 167, ((R)-3-aminopiperidin-1-yl)(1-methyl-2-(3-methyl-2,3-dihydro-1H-pyrrolo[1,2,3-de]quinoxalin-5-yl)-1H-benzo[d]imidazol-5-yl)methanone], for which the negative-log IC50 (pIC50) is 5.39 under setting [2] and 5.30 to 6.30 under setting [1].

`Cn1c(-c2cc3cccc4c3n2CCN4)nc2cc(C(=O)N3C[C@H]4CC[C@@H]3[C@@H]4N)ccc21` [Example 168, ((1R,4R,7R)-7-amino-2-azabicyclo[2.2.1]heptan-2-yl)(2-(2,3-dihydro-1H-pyrrolo[1,2,3-de]quinoxalin-5-yl)-1-methyl-1H-benzo[d]imidazol-5-yl)methanone]: the negative-log IC50 (pIC50) reads like this: under setting [2], 5.64; under setting [1], 5.30 to 6.30.

For the compound `CC[C@@H]1CN(CCCO)c2cccc3cc(-c4nc5cc(C(=O)N6C[C@H]7CC[C@@H]6[C@@H]7N)cc(F)c5n4CC)n1c23` [Example 97, ((1R,4R,7R)-7-amino-2-azabicyclo[2.2.1]heptan-2-yl)(1-ethyl-2-((R)-3-ethyl-1-(3-hydroxypropyl)-2,3-dihydro-1H-pyrrolo[1,2,3-de]quinoxalin-5-yl)-7-fluoro-1H-benzo[d]imidazol-5-yl)methanone], the negative logarithm of the IC50 (pIC50) under setting [1] was under 5.30.

With `COc1cc(C(=O)N2C[C@H](N)C[C@@H](F)C2)cc2nc(-c3cc4cccc5c4n3CCN5C(=O)COC(C)=O)n(C)c12` [Example 29, 2-(5-(5-((3R,5R)-3-amino-5-fluoropiperidine-1-carbonyl)-7-methoxy-1-methyl-1H-benzo[d]imidazol-2-yl)-2,3-dihydro-1H-pyrrolo[1,2,3-de]quinoxalin-1-yl)-2-oxoethyl acetate)], under setting [1], the negative-log IC50 (pIC50) was 5.30 to 6.30. Same read-out and setting: next, `Cn1c(-c2cc3c(C#N)ccc4c3n2[C@@H](C2CC2)CN4)nc2cc(C(=O)N3C[C@H]4CC[C@@H]3[C@@H]4N)cc(F)c21` [Example 120, (S)-5-(5-((1R,4R,7R)-7-amino-2-azabicyclo[2.2.1]heptane-2-carbonyl)-7-fluoro-1-methyl-1H-benzo[d]imidazol-2-yl)-3-cyclopropyl-2,3-dihydro-1H-pyrrolo[1,2,3-de]quinoxaline-7-carbonitrile]: under 5.30. As for `COc1cc(C(=O)N2C[C@H](N)C[C@@H](C(F)(F)F)C2)cc2nc(-c3cc4cccc5c4n3CCN5CCCO)n(C)c12` [Example 17, ((3R,5R)-3-amino-5-(trifluoromethyl)piperidin-1-yl)(2-(1-(3-hydroxypropyl)-2,3-dihydro-1H-pyrrolo[1,2,3-de]quinoxalin-5-yl)-7-methoxy-1-methyl-1H-benzo[d]imidazol-5-yl)methanone], the pIC50 under setting [1] is under 5.30.

`CCC1CNc2c(Cl)ccc3cc(-c4nc5cc(C(=O)N6C[C@H]7CC[C@@H]6[C@@H]7N)cc(F)c5n4C)n1c23` (stereo partly drawn) [Example 125, ((1R,4R,7R)-7-amino-2-azabicyclo[2.2.1]heptan-2-yl)(2-(9-chloro-3-ethyl-2,3-dihydro-1H-pyrrolo[1,2,3-de]quinoxalin-5-yl)-7-fluoro-1-methyl-1H-benzo[d]imidazol-5-yl)methanone]: the negative-log IC50 (pIC50) under setting [1] was under 5.30. The same measure, in the same setting: then `CCC1CNc2cccc3cc(-c4nc5cc(C(=O)N6C[C@H]7CC[C@@H]6[C@@H]7N)cnn5c4C)n1c23` (stereo partly drawn) [Example 138, [(1R,4R,7R)-7-amino-2-azabicyclo[2.2.1]heptan-2-yl]-[2-(11-ethyl-1,9-diazatricyclo[6.3.1.0^4,12]dodeca-2,4,6,8(12)-tetraen-2-yl)-3-methyl-imidazo[1,2-b]pyridazin-7-yl]methanone], with 5.30 to 6.30.

The term pIC50 denotes the negative decadic logarithm of the IC50, by convention in mol/L.
